Holding throughout (assay): LPS-stimulated whole bovine blood assay, MSD cytokine detection
Type in all cases: cell-based

The test system of one assay is TNF-α. The conditions noted are these: Bos taurus, LPS-stimulated bovine whole blood; read-out: TNF-α (IC50 μM).
A further assay concerns IL-1β. The settings on record: overstimulation of IL-1β, LPS-stimulated bovine whole blood.
A further assay has as its system IL-6. The conditions noted are these: Bos taurus, LPS-stimulated bovine whole blood; read-out: IL-6 (IC50 μM). An excerpt: In order to correlate RNA sequencing data to cytokine changes the whole blood assay was utilized. […] The enhancement result represents an overall stimulation of cytokine levels due to cellular stress or potential toxicity with increasing concentrations of the compound, representing a typical bell shape response curve for immunomodulatory activity.

Each structure is given as a SMILES string. Where only a bound is given, the exact number is not on record here.

Usually IC50 stands for the concentration needed to halve the response being measured. With `CC[C@H]1OC(=O)[C@H](C)[C@@H](O[C@H]2C[C@@](C)(OC)[C@H](O)[C@H](C)O2)[C@H](C)[C@@H](O[C@@H]2O[C@H](C)C[C@H](N(C)C(=O)N(C)c3ccc(C(F)(F)F)cc3)[C@H]2O)[C@](C)(O)C[C@@H](C)CN[C@H](C)[C@@H](O)[C@]1(C)O` [Example B-2a, 1-((2S,3R,4S,6R)-2-(((2R,3S,4R,5R,8R,10R,11R,12S,13S,14R)-2-ethyl-3,4,10-trihydroxy-13-(((2R,4R,5R,6S)-5-hydroxy-4-methoxy-4,6-dimethyltetrahydro-2H-pyran-2-yl)oxy)-3,5,8,10,12,14-hexamethyl-15-oxo-1-oxa-6-azacyclopentadecan-11-yl)oxy)-3-hydroxy-6-methyltetrahydro-2H-pyran-4-yl)-1,3-dimethyl-3-(4-(trifluoromethyl)phenyl)urea], the IC50 in the assay with TNF-α was 9 µM; in the assay on IL-6, 23 µM. Also, the “IL-1β OS of LPS” value in the assay with IL-1β stood at 16 µM.
In the same order, the values of `CC[C@H]1OC(=O)[C@H](C)[C@@H](O[C@H]2C[C@@](C)(OC)[C@@H](O)[C@H](C)O2)[C@H](C)[C@@H](O[C@@H]2O[C@H](C)C[C@H](N(C)C(=O)N(C)c3ccccc3)[C@H]2O)[C@](C)(O)C[C@@H](C)CN[C@H](C)[C@@H](O)[C@]1(C)O` [Example B-3, 1-((2S,3R,4S,6R)-2-(((2R,3S,4R,5R,8R,10R,11R,12S,13S,14R)-2-ethyl-3,4,10-trihydroxy-13-(((2R,4R,5S,6S)-5-hydroxy-4-methoxy-4,6-dimethyltetrahydro-2H-pyran-2-yl)oxy)-3,5,8,10,12,14-hexamethyl-15-oxo-1-oxa-6-azacyclopentadecan-11-yl)oxy)-3-hydroxy-6-methyltetrahydro-2H-pyran-4-yl)-1,3-dimethyl-3-phenylurea] are 37 µM, 65 µM and 40 µM.
The corresponding values for `CC[C@H]1OC(=O)[C@H](C)[C@@H](O[C@H]2C[C@@](C)(OC)[C@H](O)[C@H](C)O2)[C@H](C)[C@@H](O[C@@H]2O[C@H](C)C[C@H](N(C)C(=O)N(C)c3ccccc3)[C@H]2O)[C@](C)(O)C[C@@H](C)CN[C@H](C)[C@@H](O)[C@]1(C)O` [Example B-3a, 1-((2S,3R,4S,6R)-2-(((2R,3S,4R,5R,8R,10R,11R,12S,13S,14R)-2-ethyl-3,4,10-trihydroxy-13-(((2R,4R,5R,6S)-5-hydroxy-4-methoxy-4,6-dimethyltetrahydro-2H-pyran-2-yl)oxy)-3,5,8,10,12,14-hexamethyl-15-oxo-1-oxa-6-azacyclopentadecan-11-yl)oxy)-3-hydroxy-6-methyltetrahydro-2H-pyran-4-yl)-1,3-dimethyl-3-phenylurea] are 12 µM, 26 µM and 16 µM.
The corresponding values for `CC[C@H]1OC(=O)[C@H](C)[C@@H](O[C@H]2C[C@@](C)(OC)[C@@H](O)[C@H](C)O2)[C@H](C)[C@@H](O[C@@H]2O[C@H](C)C[C@H](N(C)C(=O)Nc3ccc(N(C)C)cc3)[C@H]2O)[C@](C)(O)C[C@@H](C)CN(C)[C@H](C)[C@@H](O)[C@]1(C)O` [Example B-7, 3-(4-(dimethylamino)phenyl)-1-((2S,3R,4S,6R)-2-(((2R,3S,4R,5R,8R,10R,11R,12S,13S,14R)-2-ethyl-3,4,10-trihydroxy-13-(((2R,4R,5S,6S)-5-hydroxy-4-methoxy-4,6-dimethyltetrahydro-2H-pyran-2-yl)oxy)-3,5,6,8,10,12,14-heptamethyl-15-oxo-1-oxa-6-azacyclopentadecan-11-yl)oxy)-3-hydroxy-6-methyltetrahydro-2H-pyran-4-yl)-1-methylurea] are 156 µM, 143 µM and 100 µM.
On to `CCCSC[C@]1(O)[C@H](C)O[C@@H](O[C@H]2[C@H](C)[C@@H](O[C@@H]3O[C@H](C)C[C@H](N(C)C(=O)N(C)c4ccccc4)[C@H]3O)[C@](C)(O)C[C@@H](C)CN[C@H](C)[C@@H](O)[C@](C)(O)[C@@H](CC)OC(=O)[C@@H]2C)C[C@@]1(C)OC` [Example D-2, 1-((2S,3R,4S,6R)-2-(((2R,3S,4R,5R,8R,10R,11R,12S,13S,14R)-2-ethyl-3,4,10-trihydroxy-13-(((2R,4R,5S,6S)-5-hydroxy-4-methoxy-4,6-dimethyl-5-((propylthio)methyl)tetrahydro-2H-pyran-2-yl)oxy)-3,5,8,10,12,14-hexamethyl-15-oxo-1-oxa-6-azacyclopentadecan-11-yl)oxy)-3-hydroxy-6-methyltetrahydro-2H-pyran-4-yl)-1,3-dimethyl-3-phenylurea], for which the IC50 with TNF-α was 20 µM; with IL-6 it was 30 µM. Besides, the “IL-1β OS of LPS” value with IL-1β came to 16 µM.
The corresponding values for `CC[C@H]1OC(=O)[C@H](C)[C@@H](O[C@H]2C[C@@](C)(OC)[C@](O)(CNCCOC)[C@H](C)O2)[C@H](C)[C@@H](O[C@@H]2O[C@H](C)C[C@H](N(C)C(=O)N(C)c3ccccc3)[C@H]2O)[C@](C)(O)C[C@@H](C)CN[C@H](C)[C@@H](O)[C@]1(C)O` [Example H-18, 1-((2S,3R,4S,6R)-2-(((2R,3S,4R,5R,8R,10R,11R,12S,13S,14R)-2-ethyl-3,4,10-trihydroxy-13-(((2R,4R,5S,6S)-5-hydroxy-4-methoxy-5-(((2-methoxyethyl)amino)methyl)-4,6-dimethyltetrahydro-2H-pyran-2-yl)oxy)-3,5,8,10,12,14-hexamethyl-15-oxo-1-oxa-6-azacyclopentadecan-11-yl)oxy)-3-hydroxy-6-methyltetrahydro-2H-pyran-4-yl)-1,3-dimethyl-3-phenylurea] are 24 µM, 165 µM and 40 µM.
In the same order, the values of `CC[C@H]1OC(=O)[C@H](C)[C@@H](O[C@H]2C[C@@](C)(OC)[C@](O)(CNCCCOC)[C@H](C)O2)[C@H](C)[C@@H](O[C@@H]2O[C@H](C)C[C@H](N(C)C(=O)N(C)c3ccccc3)[C@H]2O)[C@](C)(O)C[C@@H](C)CN[C@H](C)[C@@H](O)[C@]1(C)O` [Example H-19, 1-((2S,3R,4S,6R)-2-(((2R,3S,4R,5R,8R,10R,11R,12S,13S,14R)-2-ethyl-3,4,10-trihydroxy-13-(((2R,4R,5S,6S)-5-hydroxy-4-methoxy-5-(((3-methoxypropyl)amino)methyl)-4,6-dimethyltetrahydro-2H-pyran-2-yl)oxy)-3,5,8,10,12,14-hexamethyl-15-oxo-1-oxa-6-azacyclopentadecan-11-yl)oxy)-3-hydroxy-6-methyltetrahydro-2H-pyran-4-yl)-1,3-dimethyl-3-phenylurea] are 70 µM, 181 µM and 100 µM.
The corresponding values for `CC[C@H]1OC(=O)[C@H](C)[C@@H](O[C@H]2C[C@@](C)(OC)[C@](O)(CNCCN(C)C)[C@H](C)O2)[C@H](C)[C@@H](O[C@@H]2O[C@H](C)C[C@H](N(C)C(=O)N(C)c3ccccc3)[C@H]2O)[C@](C)(O)C[C@@H](C)CN[C@H](C)[C@@H](O)[C@]1(C)O` [Example H-20, 1-((2S,3R,4S,6R)-2-(((2R,3S,4R,5R,8R,10R,11R,12S,13S,14R)-13-(((2R,4R,5S,6S)-5-(((2-(dimethylamino)ethyl)amino)methyl)-5-hydroxy-4-methoxy-4,6-dimethyltetrahydro-2H-pyran-2-yl)oxy)-2-ethyl-3,4,10-trihydroxy-3,5,8,10,12,14-hexamethyl-15-oxo-1-oxa-6-azacyclopentadecan-11-yl)oxy)-3-hydroxy-6-methyltetrahydro-2H-pyran-4-yl)-1,3-dimethyl-3-phenylurea] are 31 µM, above 500 µM and 6 µM.
For `CCCN(C[C@]1(O)[C@H](C)O[C@@H](O[C@H]2[C@H](C)[C@@H](O[C@@H]3O[C@H](C)C[C@H](N(C)C(N)=O)[C@H]3O)[C@](C)(O)C[C@@H](C)CN[C@H](C)[C@@H](O)[C@](C)(O)[C@@H](CC)OC(=O)[C@@H]2C)C[C@@]1(C)OC)C(N)=O` [Example H-22, 1-((2S,3R,4S,6R)-2-(((2R,3S,4R,5R,8R,10R,11R,12S,13S,14R)-2-ethyl-3,4,10-trihydroxy-13-(((2R,4R,5S,6S)-5-hydroxy-4-methoxy-4,6-dimethyl-5-((1-propylureido)methyl)tetrahydro-2H-pyran-2-yl)oxy)-3,5,8,10,12,14-hexamethyl-15-oxo-1-oxa-6-azacyclopentadecan-11-yl)oxy)-3-hydroxy-6-methyltetrahydro-2H-pyran-4-yl)-1-methylurea], the IC50 with TNF-α and in the assay on IL-6 was above 500 µM throughout. Moreover, the “IL-1β OS of LPS” value in the assay on IL-1β was above 500 µM.
Consider `CC[C@H]1OC(=O)[C@H](C)[C@@H](O[C@H]2C[C@@](C)(OC)[C@](O)(CNC)[C@H](C)O2)[C@H](C)[C@@H](O[C@@H]2O[C@H](C)C[C@H](N(C)C(=O)N(C)c3ccccc3)[C@H]2O)[C@](C)(O)C[C@@H](C)CN[C@H](C)[C@@H](O)[C@]1(C)O` [Example H-26, 1-((2S,3R,4S,6R)-2-(((2R,3S,4R,5R,8R,10R,11R,12S,13S,14R)-2-ethyl-3,4,10-trihydroxy-13-(((2R,4R,5S,6S)-5-hydroxy-4-methoxy-4,6-dimethyl-5-((methylamino)methyl)tetrahydro-2H-pyran-2-yl)oxy)-3,5,8,10,12,14-hexamethyl-15-oxo-1-oxa-6-azacyclopentadecan-11-yl)oxy)-3-hydroxy-6-methyltetrahydro-2H-pyran-4-yl)-1,3-dimethyl-3-phenylurea], for which the IC50 is 30 µM in the assay with TNF-α and above 250 µM with IL-6. For the same compound, the “IL-1β OS of LPS” value in the assay with IL-1β came out at 250 µM.
